# Measured values from the supplement of paper PMC10307832.
# Assays:
# Assay in all cases: relative viability (nuclei count vs DMSO), 5 days (fraction); higher = more cells survive
# Pemetrexed + Vorinostat = compound: Nc1nc2[nH]cc(CCc3ccc(C(=O)N[C@@H](CCC(=O)O)C(=O)O)cc3)c2c(=O)[nH]1 [Pemetrexed] + O=C(CCCCCCC(=O)Nc1ccccc1)NO [Vorinostat] (partner 1 µM)
# How it was run: (§1)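 For relative viability, nuclei counts in treated wells were divided by those in vehicle wells. Lung cancer cell lines had been pin-tool dosed in 1536-well plates the day after seeding and cultured for 5 days, then fixed and stained in one step (final 0.05% Triton X-100, 1% formaldehyde, 1 ug/ml Hoechst) and imaged at 4×. Doses were one drug alone or a fixed anchor-drug dose plus five library-drug doses (not always all listed) in √10 steps, and values are duplicate-plate medians.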
# Idelalisib + Foretinib = compound: CC[C@H](Nc1ncnc2[nH]cnc12)c1nc2cccc(F)c2c(=O)n1-c1ccccc1 [Idelalisib] + COc1cc2c(Oc3ccc(NC(=O)C4(C(=O)Nc5ccc(F)cc5)CC4)cc3F)ccnc2cc1OCCCN1CCOCC1 [Foretinib] (partner 0.25 µM)
# How it was run: as §1
# Pemetrexed + Dasatinib = compound: Nc1nc2[nH]cc(CCc3ccc(C(=O)N[C@@H](CCC(=O)O)C(=O)O)cc3)c2c(=O)[nH]1 [Pemetrexed] + Cc1nc(Nc2ncc(C(=O)Nc3c(C)cccc3Cl)s2)cc(N2CCN(CCO)CC2)n1 [Dasatinib] (partner 0.075 µM)
# How it was run: as §1
# Pemetrexed + Foretinib = compound: Nc1nc2[nH]cc(CCc3ccc(C(=O)N[C@@H](CCC(=O)O)C(=O)O)cc3)c2c(=O)[nH]1 [Pemetrexed] + COc1cc2c(Oc3ccc(NC(=O)C4(C(=O)Nc5ccc(F)cc5)CC4)cc3F)ccnc2cc1OCCCN1CCOCC1 [Foretinib] (partner 0.25 µM)
# How it was run: as §1
cell line,measurement,setting,value
UMC-11,relative viability,Pemetrexed + Vorinostat; first compound 0.002 µM,0.425
same,relative viability,Pemetrexed + Vorinostat; first compound 0.006325 µM,0.355
same,relative viability,Pemetrexed + Vorinostat; first compound 0.02 µM,0.44
same,relative viability,Pemetrexed + Vorinostat; first compound 0.06325 µM,0.347
same,relative viability,Pemetrexed + Vorinostat; first compound 0.2 µM,0.35
same,relative viability,Idelalisib + Foretinib; first compound 0.04 µM,0.957
same,relative viability,Idelalisib + Foretinib; first compound 0.1265 µM,1.07
same,relative viability,Idelalisib + Foretinib; first compound 0.4 µM,0.988
same,relative viability,Idelalisib + Foretinib; first compound 1.265 µM,1.03
same,relative viability,Idelalisib + Foretinib; first compound 4 µM,1.09
same,relative viability,Pemetrexed + Dasatinib; first compound 0.002 µM,0.483
same,relative viability,Pemetrexed + Dasatinib; first compound 0.006325 µM,0.451
same,relative viability,Pemetrexed + Dasatinib; first compound 0.02 µM,0.468
same,relative viability,Pemetrexed + Dasatinib; first compound 0.06325 µM,0.442
same,relative viability,Pemetrexed + Dasatinib; first compound 0.2 µM,0.474
same,relative viability,Pemetrexed + Foretinib; first compound 0.002 µM,1.02
same,relative viability,Pemetrexed + Foretinib; first compound 0.006325 µM,0.943
same,relative viability,Pemetrexed + Foretinib; first compound 0.02 µM,1.14
same,relative viability,Pemetrexed + Foretinib; first compound 0.06325 µM,1.02
same,relative viability,Pemetrexed + Foretinib; first compound 0.2 µM,0.847
